Key:
[1] = tested on: hair loss associated with a dermal fungal infection; experiment: Horse with "summer itch" hair loss treated with a composition including CSA-44; format: in vivo
Text: A treatment composition including CSA-44 was applied to a horse having a “summer itch” condition associated with a dermal fungal infection. […] As shown, the subject horse had several patches of visible hair loss. […] As shown, hair had regrown to completely fill in the previous patches and the regrown hair was thick and full. Typical time for hair to grow back on a horse following treatment of such a fungal infection is approximately 28 days. The CSA-based treatment therefore regenerated hair growth 1.56 times faster than a conventional treatment.

[2] = tested on: hair growth on depilated dorsal skin of C57BL/6 mice; experiment: Mouse model of hair regrowth after shaving and depilation, topical CSA-44 cream; format: in vivo, mice (C57BL/6); details: for Percentage Change in Hair growth: Day 21, compared with vehicle treated control group; for Hair growth scoring Day 1 / Hair growth scoring Day 3 / Hair growth scoring Day 7 / Hair growth scoring Day 10 / Hair growth scoring Day 14 / Hair growth scoring Day 17: Mean ± SE, n = 8, score 0-10
Text: A mouse model was used to test the effectiveness of a CSA-based treatment composition in stimulating stem cells and regenerating hair growth. Male C57BL/6 mice aged 8 weeks, were housed under environmentally monitored conditions and were fed a standard rodent diet. The hair on the dorsal surface of each mouse was shaved with an animal clipper, which was then followed by application of a depilatory cream to clean the remaining hair as described by Jung M K et al (Life Sci. 2015 May 1; 128:39-46). The mice were then allowed to rest for 24 h.
On the day of experiment, all the animals were weighed and randomized into different treatment groups (n=8) according to body weight. Randomized animals were identified by individual animal marking and cage cards were used for group identification.
The animals of Group 1, the control mice, were treated topically with the cream-based vehicle. The animals of Group 2 were treated topically with 100 mg of […] once daily for 3 weeks. The animals in Group 3 were treated topically with 100 mg of 2.0% CSA-44 test compound once every other day for 3 weeks.
A preliminary tolerability study was conducted in C57BL/6 mice for selecting an appropriate well tolerated dose for the present efficacy study. Based on the results from the preliminary dose tolerability study, 100 mg of a formulation containing 0.5% CSA-44 was uniformly applied topically on the shaven areas of the dorsal skin once daily for 3 weeks. Similarly, 100 mg of 2% CSA-44 formulation was applied topically every other day for 3 weeks. 100 mg of cream vehicle was applied topically on the shaved areas once daily for 3 weeks.
The hair-growth score was evaluated using the scoring pattern below as described by Vegesna et al (Endocrinology 143(11):4389-4396). A score of ‘0’ indicates no change in the amount of hair growth compared with the hair-loss induction day and a score of ‘10’ indicates full hair growth on the entire site on the dorsal skin. Darkening and hair-growth rate was monitored twice weekly for 3 weeks. Images of the dorsal skin of the mice were captured using a digital camera at weekly intervals to notice the start of hair regrowth period and the hair regrowth pattern.
Body weight of the animals were recorded once prior to randomization (pre dose) and twice weekly during the course of the study. All animals were observed once daily for clinical signs and twice daily (morning and evening) for mortality and morbidity. No mortality was observed during the study period. Animals were sacrificed at the end of the study period by following a standard protocol using CO2 induced euthanasia. Results
Hair growth score and body weight were recorded twice weekly during the study period. The percentage (%) change in hair growth was calculated on Day 21 by comparing the treated mice with the vehicle treated control group.

[3] = 0.5% CSA-44, topical, once daily for 3 weeks
[4] = 2% CSA-44, topical, once every other day for 3 weeks

CCCCCCCCOC(=O)CC[C@@H](C)[C@H]1CC[C@H]2[C@@H]3[C@H](OC(=O)CCN)C[C@@H]4C[C@H](OC(=O)CCN)CC[C@]4(C)[C@H]3C[C@H](OC(=O)CCN)[C@]12C [CSA-44]
Hair growth regeneration speed versus conventional treatment ([1]; 18 days versus typical approximately 28 days): 1.56 times faster | Treatment time after which hair had regrown to completely fill in the previous patches ([1]; horse, composition including CSA-44): 18 days | Percentage Change in Hair growth [2, 3]: 72% | Hair growth scoring Day 1 [2, 3]: 0.00 | Hair growth scoring Day 3 [2, 3]: 0.25 | Hair growth scoring Day 7 [2, 3]: 0.50 | Hair growth scoring Day 10 [2, 3]: 1.38 | Hair growth scoring Day 14 [2, 3]: 2.63 | Hair growth scoring Day 17 [2, 3]: 4.88 | Percentage Change in Hair growth [2, 4]: 66% | Hair growth scoring Day 1 [2, 4]: 0.00 | Hair growth scoring Day 3 [2, 4]: 0.38 | Hair growth scoring Day 7 [2, 4]: 0.50 | Hair growth scoring Day 10 [2, 4]: 1.50 | Hair growth scoring Day 14 [2, 4]: 2.50 | Hair growth scoring Day 17 [2, 4]: 4.13 | Skin area with black hair compared with control group ([2]; CSA-44 treated groups, end of 3 weeks): larger
